Key:
Format in all cases: cell-based, murine
RAW 264.7 macrophages = assay: Labile Iron Pool (LIP) calcein assay; details: Hep-25His-treated RAW 264.7 macrophages
Experimental: FIG. 6. Recombinant tagged hepcidins increase the Labile Iron Pool in RAW 264.7 macrophages. RAW 264.7 macrophages were treated with 10 μM Hep-25His having the sequence of SEQ ID NO. 6, Hep-25MycHis having the sequence of SEQ ID NO. 8, Hep-20MycHis having the sequence of SEQ ID NO. 7 and negative peptide having the sequence of SEQ ID NO. 9 for 4 h at 37° C. PBS was used as negative and FAC at 30 μg/ml as positive control. Relative alterations of the LIP were monitored with calcein upon addition of isonicotinoyl-hydraxone salicylaldehyde. Data are expressed as mean±S.D. of two independent experiments performed in triplicates relative to control. **p<0.001, *p<0.05. Statistical analysis was performed with t-Test.
LIP assay—The fluorescent metalosensor calcein (Molecular Probes, Eugene, Oreg.) was used for the measurement of alterations in the levels of the LIP (Labile Iron Pool) (Murphy, A. T., Witcher, D. R., Luan, P., and Wroblewski, V. J. (2007) Blood 110, 1048-54). 1×10^6 RAW 264.7 macrophages were plated in 6-well plates. […] Fluorescence was measured with the Perkin Elmer LS55 fluorescent plate reader (Perkin Elmer LifeSciences, Boston Mass.) (488 nm excitation, 517 nm emission). […] Relative changes were expressed as percentage of the control. […]

ferroportin (FPN1) = molecular target: T1, ferroportin (FPN1) (Mus musculus, UniProt Q9JHI9); assay: Western blot of ferroportin expression in macrophages
T1 construct: endogenous in cells; host or cells: RAW 264.7 murine macrophages
T1 sequence (Q9JHI9 1-570): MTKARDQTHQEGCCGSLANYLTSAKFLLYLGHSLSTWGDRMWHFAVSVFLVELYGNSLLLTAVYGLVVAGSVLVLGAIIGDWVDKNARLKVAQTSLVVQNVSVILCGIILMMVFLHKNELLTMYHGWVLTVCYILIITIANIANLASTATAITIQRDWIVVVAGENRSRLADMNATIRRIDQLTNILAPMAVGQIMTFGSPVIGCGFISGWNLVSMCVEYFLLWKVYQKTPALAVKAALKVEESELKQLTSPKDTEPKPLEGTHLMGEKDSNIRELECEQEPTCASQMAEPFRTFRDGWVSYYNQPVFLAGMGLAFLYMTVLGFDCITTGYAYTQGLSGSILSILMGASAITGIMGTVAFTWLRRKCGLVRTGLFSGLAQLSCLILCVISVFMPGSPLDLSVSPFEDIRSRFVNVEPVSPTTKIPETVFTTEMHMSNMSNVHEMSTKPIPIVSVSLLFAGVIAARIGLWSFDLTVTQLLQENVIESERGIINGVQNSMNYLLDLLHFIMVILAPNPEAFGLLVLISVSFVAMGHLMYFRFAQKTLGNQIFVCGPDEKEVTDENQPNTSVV
Experimental: (§1) A, RAW 264.7 macrophages were treated with 11 μM and 10 μM of synthetic hepcidin-25 (having the sequence of SEQ ID NO. 2) and Hep-25His (having the sequence of SEQ ID NO. 6) for 4 h at 37° C. or with PBS as negative control. Cell lysates were subjected to 8% SDS PAGE and Western Blot with antibodies against TfR1, Ferroportin and actin as loading control. B, The signal density of ferroportin, TfR1 and actin protein bands from two independent experiments were quantified by densitometry and their intensity relative to actin was calculated. […] Hep25-His, negative peptide and PBS was incubated with Raw 264.7 macrophages, followed by cross-linking with DSS. Cell lysates were incubated with Ni2-NTA and eluates were analyzed by Western blot using anti-FPN1 Ab. […] HEK293-Fpn cells were induced with ponasterone for 24 h and then treated with Hep25-His or synthetic hepcidin 25 (s. Hep25) for 3 h. Fluorescence was visualized with a Leica TCS confocal microscope.
(§2) Western blotting—1×10^6 cells (RAW 264.7, THP-1 or J774) were plated in […] plates and after 12-20 h cells were treated with hepcidins in serum-free DMEM for 4 h, at 37° C. Afterwards, cells were re-suspended in lysis buffer (1% Triton, 25 mM Hepes pH 7.4, 150 mM NaCl, 10% Glycerol, 5 mM EDTA, 0.5 mM PMSF, protein inhibitors (Roche, Mannheim, Germany) and quantified by Bradford assay (Biorad, Hercules, Calif.). 30 μg of cell lysate was analyzed on 8% SDS-PAGE. Proteins were transferred to Hybond C nitrocellulose membrane (Amersham Biosciences, Piscataway, N.J.) and the membranes were incubated with the primary antibodies rabbit anti-ferroportin (Alpha Diagnostics, San Antonio, Tex.), mouse anti-TfR1 (Zymed, Invitrogen, Carlsbad, Calif.) and mouse anti-β actin (Santa Cruz Biotech, Santa Cruz, Calif.), in a dilution of 1:1000, overnight at 4° C. After washing, the membranes were incubated with anti-rabbit and anti-mouse secondary antibodies conjugated with HRP, in a dilution of 1:5000 (DakoCytomation, Carpinteria, Calif.), for 1 h at room temperature. Specific signal was detected with a chemiluminescence assay kit (ECL, Amersham Biosciences, Piscataway, N.J.). The bands were quantified by densitometry using the Quantity-One (Biorad, Hercules, Calif.) software. Data are shown as means±SD. Statistical analysis was performed by student t-Test.

TfR1 = assay: Western blot of TfR1 expression in macrophages
Experimental: as §1
as §2, with “After washing, the membranes were incubated with anti-rabbit and anti-mouse secondary antibodies conjugated with HRP, in a dilution of 1:5000 (DakoCytomation, Carpinteria, Calif.), for 1 h at room temperature.” left out, “Data are shown as means±SD. Statistical analysis was performed by student t-Test.” left out

[1] = RAW 264.7, 10 μM, 4 h at 37° C.

Substance: hepcidin-25His [Hep-25His]
- retention of iron, LIP levels (RAW 264.7 macrophages): increase in LIP levels
- reduction of FPN1 in comparison to untreated cells (ferroportin (FPN1); [1]): 48±3%
- decrease in ferroportin levels (ferroportin (FPN1); RAW 264.7 macrophages): ~50%
- effect of higher concentrations on FPN1 and TfR1 (ferroportin (FPN1); concentrations higher than 10 μM, data not shown): did not have a stronger effect
- reduction of TfR1 in comparison to untreated cells (TfR1; [1]): 48%±17.7
- decrease in TfR1 expression (TfR1; RAW 264.7 macrophages): ~50%
